Measured values: article PMC6792352, “Limited Chemical Structural Diversity Found to Modulate Thyroid Hormone Receptor in the Tox21 Chemical Library” (Environmental Health Perspectives, 2019)
Counter-ions that a name gives are not always drawn.

Experiment: in vitro
Conditions: rat, gh3-tre-luc cells

Compound	CC50 at 24 h (AC50 (uM) modified / 1000)	also measured
Nc1cccc(Cl)c1 [3-Chloroaniline]	> 90 µM	–
CCCn1cnc2c1c(=O)n(CCCCC(C)=O)c(=O)n2C [Propentofylline]	> 50 µM	–
O=C(Cl)c1ccc(F)c(Cl)c1 [3-Chloro-4-fluorobenzoyl chloride]	> 90 µM	–
OCC(F)(F)F [2,2,2-Trifluoroethanol]	> 100 µM	–
O=C1C(N(CO)C(=O)NCO)N(CO)C(=O)N1CO (stereo not drawn) [Diazolidinyl urea]	> 90 µM	–
Nc1c(Cl)cc([N+](=O)[O-])cc1Cl [Dicloran]	> 90 µM	–
COc1ccccc1N=Nc1c(S(=O)(=O)O)cc2cc(S(=O)(=O)O)cc(NC(C)=O)c2c1O [C.I. Acid Violet 12, disodium salt]	36.9 µM	–
CCOC(C)=O [Ethyl acetate]	> 90 µM	–
OCC1(CO)COC(C(Cl)(Cl)Cl)OC1 [Penthrichloral]	> 50 µM	–
COCCOC(=O)CC#N [2-Methoxyethyl cyanoacetate]	> 90 µM	–
CCCCN(N=O)C(=N)N[N+](=O)[O-] [N-Butyl-N'-nitro-N-nitrosoguanidine]	56.4 µM	–
CC(C#N)CCC#N (stereo not drawn) [2-Methylpentanedinitrile]	–	CC50 at 24 h (AC50 (uM) modified / 1000, Tox21_110001=Tox21_201788, viability, 1 nM T3 present, 24 h): > 90 µM
c1ccc2cc3c(ccc4ccccc43)cc2c1 [Benz(a)anthracene]	> 90 µM	–
Cc1ncc(CO)c(CN)c1O [Pyridoxamine dihydrochloride]	> 50 µM	–
CC(C)(C)c1ccccc1O [2-tert-Butylphenol]	> 90 µM	–
CCCCC(CC)COCCC#N (stereo not drawn) [3-((2-Ethylhexyl)oxy)propionitrile]	> 90 µM	–
O=C(O)COc1ccc(CCNS(=O)(=O)c2ccccc2)s1 [Linotroban]	> 50 µM	–
C=C(C)C(=O)OCC1CO1 (stereo not drawn) [Glycidyl methacrylate]	> 90 µM	–
O=[N+]([O-])c1ccc2ncccc2c1 [6-Nitroquinoline]	> 90 µM	–
CN=C=S [Methyl isothiocyanate]	–	CC50 at 24 h (AC50 (uM) modified / 1000, Tox21_110001=Tox21_201548, viability, 1 nM T3 present, 24 h): > 90 µM; CC50 at 24 h (AC50 (uM) modified / 1000, Tox21_110001=Tox21_300912, viability, 1 nM T3 present, 24 h): > 200 µM
CCCCCC1Nc2cc(C(F)(F)F)c(S(N)(=O)=O)cc2S(=O)(=O)N1 (stereo not drawn) [Penflutizide]	> 50 µM	–

Compound	CC50 at 24 h (AC50 (uM) modified / 1000)	also measured
c1ccc2cc3ccccc3cc2c1 [Anthracene]	> 90 µM	–
CN(C)N [1,1-Dimethylhydrazine]	–	CC50 at 24 h (AC50 (uM) modified / 1000, Tox21_110001=Tox21_302358, viability, 1 nM T3 present, 24 h): > 90 µM
CCCCCCCC[N+](CCCCCCCC)(CCCCCCCC)CCCCCCCC [Tetra-N-octylammonium bromide]	2.56 µM	–
O=C1OC(=O)c2cc(-c3ccc4c(c3)C(=O)OC4=O)ccc21 [5,5'-Bi-2-benzofuran-1,1',3,3'-tetrone]	> 90 µM	–
CCNc1nc(Cl)nc(NCC)n1 [Simazine]	> 90 µM	–
CCCC(c1cc(C(C)(C)C)c(O)cc1C)c1cc(C(C)(C)C)c(O)cc1C [4,4'-Butane-1,1-diylbis(2-tert-butyl-5-methylphenol)]	3.97 µM	–
COc1cc(OC)nc(NC(=O)NS(=O)(=O)c2ncccc2C(=O)N(C)C)n1 [Nicosulfuron]	> 90 µM	–
CC[N+](CC)(CC)CCOC(=O)C(C1CCCC1)C1CCCC1 [Diponium bromide]	> 50 µM	–
CC(=O)c1ccc2c(c1)N(CCCN1CCC(CCO)CC1)c1ccccc1S2 [Piperacetazine]	10.7 µM	–
Cc1ncc(C[n+]2csc(CCO[P@](=O)(O)OP(=O)(O)O)c2C)c(N)n1 [Cocarboxylase chloride]	> 50 µM	–
O=C1NCN(c2ccccc2)C12CCN(CCCOc1ccc(F)cc1)CC2 [AMI-193]	14.1 µM	–
CCN(CC)C(=O)[C@]1(c2ccccc2)C[C@@H]1CN (racemic) [Milnacipran hydrochloride]	> 50 µM	–
C=CC(=O)OCC(C)C [Isobutyl acrylate]	> 90 µM	–
FC(F)(Cl)C(F)(Cl)Cl [1,1,2-Trichloro-1,2,2-trifluoroethane]	> 90 µM	–
O=C(O)CNC(=O)CNC(=O)CNC(=O)CSC(=O)c1ccccc1 [Betiatide]	> 50 µM	–
COc1c(Cl)ccc(Cl)c1C(=O)O [Dicamba]	> 90 µM	–
NNc1ccccc1 [Phenylhydrazine]	–	CC50 at 24 h (AC50 (uM) modified / 1000, Tox21_110001=Tox21_201977, viability, 1 nM T3 present, 24 h): 71 µM; CC50 at 24 h (AC50 (uM) modified / 1000, Tox21_110001=Tox21_303018, viability, 1 nM T3 present, 24 h): 42 µM
CCOP(=S)(OCC)SCn1c(=O)oc2cc(Cl)ccc21 [Phosalone]	–	CC50 at 24 h (AC50 (uM) modified / 1000, Tox21_110001=Tox21_202294, viability, 1 nM T3 present, 24 h): > 100 µM; CC50 at 24 h (AC50 (uM) modified / 1000, Tox21_110001=Tox21_300811, viability, 1 nM T3 present, 24 h): 80.4 µM
Cc1cccc(Nc2ccccc2)c1 [3-Methyl-N-phenylaniline]	> 90 µM	–
N#CCc1ccccc1 [Benzyl cyanide]	> 90 µM	–
O=[N+]([O-])c1ccccc1O [2-Nitrophenol]	–	CC50 at 24 h (AC50 (uM) modified / 1000, Tox21_110001=Tox21_201442, viability, 1 nM T3 present, 24 h): > 90 µM

Compound	CC50 at 24 h (AC50 (uM) modified / 1000)	also measured
CCC(C)(C)CC [Pentane,3,3-dimethyl-]	> 100 µM	–
C=C[Si](OCCOC)(OCCOC)OCCOC	> 90 µM	–
CCCCCCCCCCCCCCCC(=O)OC[C@H](O)[C@H]1OC(=O)C(O)=C1O [Ascorbyl palmitate]	> 50 µM	–
COS(=O)(=O)OC [Dimethyl sulfate]	> 90 µM	–
N=C(N)N [Guanidine carbonate]	> 50 µM	–
CN1CCC(O)(c2ccc(F)cc2)C(C(=O)c2ccc(F)cc2)C1 (stereo not drawn) [Flazalone]	19.6 µM	–
Cc1ccc(-n2nc(C(C)(C)C)cc2NC(=O)Nc2ccc(OCCN3CCOCC3)c3ccccc23)cc1 [Doramapimod]	> 50 µM	–
CN1C(=O)N(C)C(O)C1O (stereo not drawn) [4,5-Dihydroxy-1,3-dimethylimidazolidin-2-one]	> 90 µM	–
Cc1c[nH]c2ccccc12 [3-Methylindole]	> 50 µM	–
Clc1ccc2cc3ccccc3cc2c1 [2-Chloroanthracene]	> 90 µM	–
Cc1cc(O)c2c(O)c3c(O)cccc3cc2c1 [Chrysarobin]	> 50 µM	–
N#Cc1ccc2c(c1)N(CCCN1CCC(O)CC1)c1ccccc1S2 [Periciazine]	14.3 µM	–
CCOc1cc(OCC)c(C(=O)CCC(=O)O)cc1OCC [Trepibutone]	> 50 µM	–
CCN(CC)C(=O)SCc1ccc(Cl)cc1 [Thiobencarb]	> 90 µM	–
CC[N+](CC)(CC(=O)Nc1c(C)cccc1C)Cc1ccccc1 [Denatonium benzoate]	> 50 µM	–
O=C(O)c1cccc(C(F)(F)F)c1 [3-(Trifluoromethyl)benzoic acid]	> 90 µM	–
CC1CC(O)CC(C)(C)C1 (stereo not drawn) [3,3,5-Trimethylcyclohexanol]	> 90 µM	–
CCCCCCCCOC(=O)c1cc(O)c(O)c(O)c1 [Octyl gallate]	2.6 µM	–
CCCCC(C)C(=O)O (stereo not drawn) [2-Methylhexanoic acid]	> 90 µM	–
Cc1cccnc1 [3-Methylpyridine]	> 90 µM	–
Cc1ncc(COP(=O)(O)O)c(C=O)c1O [Pyridoxal phosphate hydrate]	> 50 µM	–

Compound	CC50 at 24 h (AC50 (uM) modified / 1000)	also measured
CCOC(=O)C(Cl)C(C)=O (stereo not drawn) [Ethyl 2-chloroacetoacetate]	–	CC50 at 24 h (AC50 (uM) modified / 1000, Tox21_110001=Tox21_202936, viability, 1 nM T3 present, 24 h): > 90 µM
C[C@]12CCC(=O)C=C1CC[C@@H]1[C@@H]2CC[C@@]2(C)[C@H]1CC[C@]2(O)C(=O)CO [Cortodoxone]	> 50 µM	–
CNCCO [N-Methylethanolamine]	> 90 µM	–
Cn1c(=O)c2c(ncn2CCO)n(C)c1=O [Etofylline]	> 50 µM	–
CC(C)CCCO [4-Methylpentan-1-ol]	> 90 µM	–
CC(c1ccc(O)cc1)(c1ccc(O)cc1)c1ccc(O)cc1 [4,4',4"-Ethane-1,1,1-triyltriphenol]	55.5 µM	–
Fc1ccc([C@@H]2CCNC[C@H]2COc2ccc3c(c2)OCO3)cc1 [Paroxetine]	10.7 µM	–
CC(C)C[C@H](NC(=O)[C@@H](COC(C)(C)C)NC(=O)[C@H](Cc1ccc(O)cc1)NC(=O)[C@H](CO)NC(=O)[C@H](Cc1c[nH]c2ccccc12)NC(=O)[C@H](Cc1cnc[nH]1)NC(=O)[C@@H]1CCC(=O)N1)C(=O)N[C@@H](CCCNC(=N)N)C(=O)N1CCC[C@H]1C(=O)NNC(N)=O [Goserelin acetate]	> 50 µM	–
CC(C)(C)C1CCCCC1=O (stereo not drawn) [2-tert-Butylcyclohexanone]	> 90 µM	–
C[C@]12CCC(=O)C=C1CC[C@@H]1[C@@H]2[C@@H](O)C[C@@]2(C)[C@H]1CC[C@]2(O)C(=O)COC(=O)CCC(=O)O [Hydrocortisone 21-hemisuccinate sodium salt]	> 50 µM	–
CCN(CC)CCO [N,N-Diethylethanolamine]	> 100 µM	–
CSc1ccc(Oc2ccc(S(N)(=O)=O)cc2CN(C)C)cc1C [UK-416244]	36.3 µM	–
OCC(O)CO [Glycerol]	> 90 µM	–
CCN(CC)Cc1nccn1-c1ccc([N+](=O)[O-])cc1C(=O)c1ccccc1Cl [Nizofenone]	> 50 µM	–
CCC(N)(CO)CO [2-Amino-2-ethyl-1,3-propanediol]	> 90 µM	–
COc1ccc(N)cc1 [4-Methoxyaniline]	–	CC50 at 24 h (AC50 (uM) modified / 1000, Tox21_110001=Tox21_303039, viability, 1 nM T3 present, 24 h): > 100 µM
CCC(Cc1ccccc1)(C(=O)c1ccc(N2CCOCC2)cc1)N(C)C (stereo not drawn) [2-Benzyl-2-(dimethylamino)-1-[4-(morpholin-4-yl)phenyl]butan-1-one]	68.2 µM	–
CS(=O)(=O)c1ccc(C(=O)C2C(=O)CCCC2=O)c(Cl)c1COCC(F)(F)F [Tembotrione]	> 90 µM	–
